For one experiment, the system named is F. oxysporum. It counts as cell-based, Fusarium oxysporum. The source says: (§1) Conidia of Fusarium spp., A. alternata, B. sorokiniana, and C. cucumerinum were collected from the surface of their colonies on potato dextrose agar by flooding the mycelium with sterilized distilled water (SDW) and gently rubbing with a glass rod, while P. nodorum spores were obtained by washing off wheat kernels infested with the pathogen. The spores (conidia) were suspended in SDW (control) or in SDW-dissolved WAMPs, WAMP-2-derived peptides, the fungicide or their mixtures to a final concentration of 10^4–10^5 spores/mL and incubated at 20–22 °C for 5–6 or 12–16 h depending on the pathogen species. The number of germinated and non-germinated spores (500 ones of each pathogen per treatment) was counted in wells of a polystyrene culture plate using an inverted microscope followed by calculation of the percent of inhibition of the spore germination as compared to control.
(§2) For each pathogen, tests on evaluation of antifungal or sensitizing activity of WAMP homologues or their peptides (three replications per treatment, 500 counted conidia in each one) included at least two independent experimental series. Mean values, standard deviations (SD), standard errors (SE), and the significance of differences (p ≤ 0.05) of the means between treatments and controls (t-test for the independent variables) were determined using […] v. 6.1 software (StatSoft Inc., Tulsa, OK, USA).

The test system of experiment [1] is P. nodorum. It counts as cell-based, Parastagonospora nodorum.
Excerpt: as §1, §2

Experiment [2] has as its system A. alternata. It counts as cell-based, Alternaria alternata.
Excerpt: as §1, §2

The test system of experiment [3] is F. culmorum. As to the kind of experiment: Inhibition of spore (conidia) germination, microplate assay. It counts as cell-based, Fusarium culmorum. Conditions: for IC50: WAMP-2-derived synthetic peptides, spore germination; for Inhibition of conidium germination: peptide alone, 400 μg/mL, mean of three experiments.
Excerpt: as §1, §2

Experiment [4] relates to B. sorokiniana. It is filed as cell-based, Bipolaris sorokiniana.
Excerpt: as §1, §2

The test system of the next experiment is C. cucumerinum. It counts as cell-based, Cladosporium cucumerinum.
Excerpt: as §1, §2

Experiment [5] deals with A. alternata.
Excerpt: as §1, with “control. […]” for “control.”
(§3) The fragments were tested at concentrations ranging between 5, 10 and 50 μg/mL against B. sorokiniana, A. alternata or other cereal-pathogenic fungi (F. culmorum, F. avenacenum and P. nodorum), respectively, to concentrations that produced the inhibitory effect of ≤50%. The sub-fungicidal concentrations of tebuconazole were preliminarily determined for each pathogen through serial double or fivefold dilutions. […]

In experiment [6] the test system is P. nodorum. As to the kind of experiment: Checkerboard sensitization assay, WAMP-2 fragment with Folicur EC 250 (tebuconazole), spore germination. It is filed as cell-based, Parastagonospora nodorum. Conditions: effective tebuconazole–WAMP-2 fragment composition; FFCI ≤ 0.5 = synergy; MFC by probit analysis.
Excerpt: as §1, with “control. […]” for “control.”
as §3

For experiment [7], the system named is F. avenaceum. Described as above. The settings on record: effective tebuconazole–WAMP-2 fragment composition; FFCI ≤ 0.5 = synergy; MFC by probit analysis. It is filed as cell-based, Fusarium avenaceum.
Excerpt: as §1, with “control. […]” for “control.”
as §3

Experiment [8] deals with F. avenaceum. As to the kind of experiment: Inhibition of spore (conidia) germination, microplate assay. It is filed as cell-based, Fusarium avenaceum. Conditions: for IC50: WAMP-2-derived synthetic peptides, spore germination.
Excerpt: as §1, §2

Experiment [9] deals with F. culmorum. As to the kind of experiment: Checkerboard sensitization assay, WAMP-2 fragment with Folicur EC 250 (tebuconazole), spore germination. It counts as cell-based, Fusarium culmorum. Conditions: effective tebuconazole–WAMP-2 fragment composition; FFCI ≤ 0.5 = synergy; MFC by probit analysis.
Excerpt: as §1, with “control. […]” for “control.”
as §3

Experiment [10] has as its system B. sorokiniana. The description is as above. It is filed as cell-based, Bipolaris sorokiniana. The settings on record: effective tebuconazole–WAMP-2 fragment composition; FFCI ≤ 0.5 = synergy; MFC by probit analysis.
Excerpt: as §1, with “control. […]” for “control.”
as §3

Where [11] appears, read: WAMP-2-derived synthetic peptides, spore germination.
Where [12] appears, read: peptide alone, 400 μg/mL, mean of three experiments.

Converted amounts (≈) assume the structure as drawn. Like-named read-outs stand apart in the source and are kept apart here. Residues, ends and D or L forms follow the SMILES beside them.

On to `N=C(N)NCCC[C@H](NC(=O)[C@H](CS)NC(=O)CNC(=O)[C@H](CCCNC(=N)N)NC(=O)[C@H](CS)NC(=O)[C@H](CCC(N)=O)NC(=O)[C@H](CO)NC(=O)[C@H](CCC(N)=O)NC(=O)[C@H](CS)NC(=O)[C@H](CO)NC(=O)CNC(=O)[C@H](CCCCN)NC(=O)CN)C(=O)O` [WAMP-C] (H-GKGSCQSQCRGCR-OH), for which the IC50 in the experiment on F. oxysporum was more than 700 µg/mL; with P. nodorum [1], 329.6 ± 7.9 µg/mL (≈ 241 µM); in the experiment on A. alternata [2], 550.4 ± 41.3 µg/mL (≈ 402 µM); with F. culmorum [3] it was more than 700 µg/mL; in the experiment with B. sorokiniana [4], 429.5 ± 51.5 µg/mL (≈ 314 µM); in the experiment with C. cucumerinum, 5.3 ± 0.1 µg/mL (≈ 3.87 µM). Also, the “Inhibition of conidium germination” value in the experiment with F. culmorum [3] was 23%.
With `CC(C)C[C@H](N)C(=O)N[C@@H](CS)C(=O)N[C@@H](CS)C(=O)NCC(=O)N[C@@H](CCCCN)C(=O)N[C@@H](Cc1ccc(O)cc1)C(=O)NCC(=O)N[C@@H](Cc1ccccc1)C(=O)N[C@@H](CS)C(=O)NCC(=O)N[C@@H](CO)C(=O)NCC(=O)O` [WAMP-G1] (H-LCCGKYGFCGSG-OH), the IC50 in the experiment with F. oxysporum is more than 700 µg/mL; in the experiment with P. nodorum [1], more than 700 µg/mL; in the experiment with A. alternata [2], more than 700 µg/mL; in the experiment with F. culmorum [3], more than 700 µg/mL; in the experiment on B. sorokiniana [4], 273.1 ± 45.7 µg/mL (≈ 229 µM); in the experiment on C. cucumerinum it was more than 700 µg/mL.
`C[C@H](NC(=O)[C@H](CC(=O)O)NC(=O)CNC(=O)[C@H](CO)NC(=O)CNC(=O)[C@H](CS)NC(=O)[C@H](Cc1ccccc1)NC(=O)CNC(=O)[C@H](Cc1ccc(O)cc1)NC(=O)[C@H](CCCCN)NC(=O)CNC(=O)[C@H](CS)NC(=O)[C@@H](N)CS)C(=O)N[C@@H](Cc1ccc(O)cc1)C(=O)N[C@@H](CS)C(=O)O` [WAMP-G2] (H-CCGKYGFCGSGDAYC-OH; N-terminus and C-terminus assumed): the “type of peptide–fungicide interaction” value in the experiment on A. alternata [5] (compositions 100 + 0.05 and 100 + 0.1 µg/mL (two of nine)) was “additive effect”. In addition, the “FFCI (Fractional Fungicidal Concentration Index)” value in the experiment with A. alternata [5] (effective tebuconazole–WAMP-2 fragment composition, FFCI ≤ 0.5 = synergy, MFC by probit analysis) is given as 0.05; with P. nodorum [6], 0.04; with F. avenaceum [7] it was 0.03; with F. culmorum [9] it was 0.02; in the experiment with B. sorokiniana [10], 0.13. For the same compound, the IC50 in the experiment with F. oxysporum (setting [11]) was 391.2 ± 34.2 µg/mL (≈ 255 µM); in the experiment on P. nodorum [1] (setting [11]) it was 424.1 ± 12.1 µg/mL (≈ 277 µM); with F. avenaceum [8], 602.8 ± 3.1 µg/mL (≈ 393 µM); with A. alternata [2] (setting [11]) it was 145.6 ± 29.4 µg/mL (≈ 94.9 µM); with F. culmorum [3], more than 700 µg/mL; in the experiment on B. sorokiniana [4] (setting [11]), 195.2 ± 36.8 µg/mL (≈ 127 µM). The compound also gave an IC50 with C. cucumerinum (setting [11]) of 410.2 ± 29.1 µg/mL (≈ 267 µM). For the same compound, the “Inhibition of conidium germination” value in the experiment on A. alternata [2] (setting [12]) is on record as 83.8%; in the experiment on F. culmorum [3], 26.2%.
On to `C[C@H](N)C(=O)N[C@@H](CCC(N)=O)C(=O)N[C@@H](CCCNC(=N)N)C(=O)N[C@@H](CS)C(=O)NCC(=O)N[C@@H](CC(=O)O)C(=O)N[C@@H](CCC(N)=O)C(=O)N[C@@H](C)C(=O)N[C@@H](CCCNC(=N)N)C(=O)NCC(=O)N[C@@H](C)C(=O)N[C@@H](CCCCN)C(=O)N[C@@H](CS)C(=O)O` [WAMP-N] (H-AQRCGDQARGAKC-OH), for which the IC50 is 238.0 ± 32.4 µg/mL (≈ 175 µM) in the experiment on F. oxysporum; 220.2 ± 13.5 µg/mL (≈ 161 µM) in the experiment on P. nodorum [1]; more than 700 µg/mL in the experiment with F. avenaceum [8]; 102.6 ± 19.6 µg/mL (≈ 75.2 µM) in the experiment with A. alternata [2]; 332.4 ± 26.1 µg/mL (≈ 244 µM) with F. culmorum [3]; 72.9 ± 12.4 µg/mL (≈ 53.5 µM) in the experiment on B. sorokiniana [4]. Also, the IC50 with C. cucumerinum is 280.2 ± 29.7 µg/mL (≈ 205 µM). Moreover, the “Inhibition of conidium germination” value in the experiment on F. avenaceum [8] (setting [12]) is 40.4%.

What is called IC50 is the concentration needed to halve the response being measured.
